Measurements as given in paper PMC10959927, “Platinum iodido drugs show potential anti-tumor activity, affecting cancer cell metabolism and inducing ROS and senescence in gastrointestinal cancer cells” (Communications Biology, 2024).

Assays:
MKN45 cells = test: Clonogenic (CFU) assay with or without NAC; type: cell-based, human; conditions: 10 days
Protocol: (§1) For the clonogenic assay we used two different approaches. […] Then, cells were cultured in a 6-well plate at a very low concentration (2 × 10^3 cells per well) and incubated for 10 days. […] To evaluate the role of ROS in cell proliferation, we supplemented the growth medium with 0.5 mM NAC. After 10 days, the cells were fixed with 1% glutaraldehyde and stained with 0.1% crystal violet. The number of colonies was quantified directly and reflected as CFUs: Colony Forming Units.

AGS cells = test: Clonogenic (CFU) assay with or without NAC; type: cell-based, human; conditions: IC50 concentration, 10 days
Protocol: as §1

In the case of `[NH2][Pt]([NH2])([Cl])[Cl]` [CDDP, cisplatin, reference compound], the “colonies (CFUs), mean ± SD” value (MKN45 cells; MKN45 + NAC 0.5 mM, IC50 concentration) is reported as 1 ± 1.4, the “colonies (CFUs), mean ± SD” value (MKN45 cells; MKN45, IC50 concentration, no NAC) is reported as 1 ± 1 and the “colonies (CFUs), mean ± SD” value (AGS cells; AGS + NAC 0.5 mM) is reported as 0.7 ± 0.6. For the same compound, the “colonies (CFUs), mean ± SD” value (AGS cells; AGS, no NAC) was 0.
